melting point [°C]	SMILES
185 to 186	CCOC(Cc1ccc(OCc2nc(C(C)(C)C)oc2C)c2ccccc12)C(=O)O (stereo not drawn) [Example 22, 3-[4-(2-tert-Butyl-5-methyl-oxazol-4-ylmethoxy)-naphthalen-1-yl]-2-ethoxy-propionic acid]
106 to 107	CCCOC(Cc1ccc(OCCc2nc(C3CCCCC3)oc2C)c2ccccc12)C(=O)O (stereo not drawn) [Example 28, 3-{4-[2-(2-Cyclohexyl-5-methyl-oxazol-4-yl)-ethoxy]-naphthalen-1-yl}-2-propoxy-propionic acid]
153 to 154	CCOC(Cc1ccc(OCc2nc(C3CC3)oc2C)c2ccsc12)C(=O)O (stereo not drawn) [Example 43, 3-[4-(2-Cyclopropyl-5-methyl-oxazol-4-ylmethoxy)-benzo[b]thiophen-7-yl]-2-ethoxy-propionic acid]
169 to 170	CCCOC(Cc1ccc(OCc2nc(C(C)(C)C)oc2C)c2ccccc12)C(=O)O (stereo not drawn) [Example 24, 3-[4-(2-tert-Butyl-5-methyl-oxazol-4-ylmethoxy)-naphthalen-1-yl]-2-propoxy-propionic acid]
166 to 168	CCOC(Cc1ccc(OCc2nc(C3CC3)oc2C)c2ccccc12)C(=O)O (stereo not drawn) [Example 38, 3-[4-(2-Cyclopropyl-5-methyl-oxazol-4-ylmethoxy)-naphthalen-1-yl]-2-ethoxy-propionic acid]
118 to 119	Cc1oc(C(C)(C)C)nc1CCCOc1ccc(CC(OC(C)C)C(=O)O)c2ccccc12 (racemic) [Example 55, [rac]-3-{4-[3-(2-tert-Butyl-5-methyl-oxazol-4-yl)-propoxy]-naphthalen-1-yl}-2-isopropoxy-propionic acid]
129 to 130	Cc1oc(C2CC2)nc1COc1ccc(CC(OC(C)C)C(=O)O)c2ccccc12 (stereo not drawn) [Example 40, 3-[4-(2-Cyclopropyl-5-methyl-oxazol-4-ylmethoxy)-naphthalen-1-yl]-2-isopropoxy-propionic acid]
141 to 143	COC(Cc1ccc(OCCc2nc(C(C)(C)C)oc2C)c2ccccc12)C(=O)O (stereo not drawn) [Example 13, 3-{4-[2-(2-tert-Butyl-5-methyl-oxazol-4-yl)-ethoxy]-naphthalen-1-yl}-2-methoxy-propionic acid]
88 to 89	CCCOC(Cc1ccc(OCc2nc(C3CC3)oc2C)c2ccsc12)C(=O)O (stereo not drawn) [Example 41, 3-[4-(2-Cyclopropyl-5-methyl-oxazol-4-ylmethoxy)-benzo[b]thiophen-7-yl]-2-propoxy-propionic acid]
71 to 72	Cc1oc(C2CC2)nc1COc1ccc(CC(OC(C)C)C(=O)O)c2sccc12 (stereo not drawn) [Example 42, 3-[4-(2-Cyclopropyl-5-methyl-oxazol-4-ylmethoxy)-benzo[b]thiophen-7-yl]-2-isopropoxy-propionic acid]

Continued, compound first:

SMILES	melting point [°C]
CCCOC(Cc1ccc(OCCCc2nc(C(C)(C)C)oc2C)c2ccccc12)C(=O)O (racemic) [Example 57, [rac]-3-{4-[3-(2-tert-Butyl-5-methyl-oxazol-4-yl)-propoxy]-naphthalen-1-yl}-2-propoxy-propionic acid]	140 to 141
Cc1oc(C(C)(C)C)nc1COc1ccc(CC(OC(C)C)C(=O)O)c2sccc12 (stereo not drawn) [Example 23, 3-[4-(2-tert-Butyl-5-methyl-oxazol-4-ylmethoxy)-benzo[b]thiophen-7-yl]-2-isopropoxy-propionic acid]	166 to 167
CCOC(Cc1ccc(OCc2nc(C(C)(C)C)oc2C)c(C)c1)C(=O)O (stereo not drawn) [Example 21, 3-[4-(2-tert-Butyl-5-methyl-oxazol-4-ylmethoxy)-3-methyl-phenyl]-2-ethoxy-propionic acid]	95 to 97
CCOC(Cc1ccc(OCCCc2nc(C(CC)CC)oc2C)c2ccsc12)C(=O)O (racemic) [Example 67, [rac]-2-Ethoxy-3-(4-{3-[2-(1-ethyl-propyl)-5-methyl-oxazol-4-yl]-propoxy}-benzo[b]thiophen-7-yl)-propionic acid]	54 to 56
CCO[C@@H](Cc1ccc(OCCc2nc(C(C)(C)C)oc2C)c2ccsc12)C(=O)O [Example 6, (S)-3-{4-[2-(2-tert-Butyl-5-methyl-oxazol-4-yl)-ethoxy]-benzo[b]thiophen-7-yl}-2-ethoxy-propionic acid]	155 to 156
C=CCCO[C@@H](Cc1ccc(OCCc2nc(C(C)(C)C)oc2C)c2ccsc12)C(=O)O [Example 7, (S)-2-But-3-enyloxy-3-{4-[2-(2-tert-butyl-5-methyl-oxazol-4-yl)-ethoxy]-benzo[b]thiophen-7-yl}-propionic acid]	70 to 71
Cc1oc(C(C)C)nc1CCCOc1ccc(CC(OC(C)C)C(=O)O)c2sccc12 (racemic) [Example 62, [rac]-2-Isopropoxy-3-{4-[3-(2-isopropyl-5-methyl-oxazol-4-yl)-propoxy]-benzo[b]thiophen-7-yl}-propionic acid]	125 to 126
CCOC(Cc1ccc(OCCCc2nc(C(C)(C)C)oc2C)c2ccsc12)C(=O)O (racemic) [Example 54, [rac]-3-{4-[3-(2-tert-Butyl-5-methyl-oxazol-4-yl)-propoxy]-benzo[b]thiophen-7-yl}-2-ethoxy-propionic acid]	125 to 126
COC(Cc1ccc(OCCc2nc(C(C)(C)C)oc2C)c2ccsc12)C(=O)O (stereo not drawn) [Example 10, 3-{4-[2-(2-tert-Butyl-5-methyl-oxazol-4-yl)-ethoxy]-benzo[b]thiophen-7-yl}-2-methoxy-propionic acid]	163 to 165
CCOC(Cc1ccc(OCCCc2nc(C(C)(C)C)oc2C)c2ccccc12)C(=O)O (racemic) [Example 56, [rac]-3-{4-[3-(2-tert-Butyl-5-methyl-oxazol-4-yl)-propoxy]-naphthalen-1-yl}-2-ethoxy-propionic acid]	138 to 140
CCOC(Cc1ccc(OCCc2nc(CC)oc2C)c2ccsc12)C(=O)O (racemic) [Example 66, [rac]-2-Ethoxy-3-{4-[2-(2-ethyl-5-methyl-oxazol-4-yl)-ethoxy]-benzo[b]thiophen-7-yl}-propionic acid]	84 to 85
CCOC(Cc1ccc(OCCCc2nc(CC)oc2C)c2ccccc12)C(=O)O (racemic) [Example 65, [rac]-2-Ethoxy-3-{4-[3-(2-ethyl-5-methyl-oxazol-4-yl)-propoxy]-naphthalen-1-yl}-propionic acid]	113 to 117
CCOC(Cc1ccc(OCCc2nc(C(C)(C)C)oc2C)c2ccsc12)C(=O)O (stereo not drawn) [Example 9, 3-{4-[2-(2-tert-Butyl-5-methyl-oxazol-4-yl)-ethoxy]-benzo[b]thiophen-7-yl}-2-ethoxy-propionic acid]	152 to 153
CCOC(Cc1ccc(OCCc2nc(C(CC)CC)oc2C)c2ccsc12)C(=O)O (racemic) [Example 68, [rac]-2-Ethoxy-3-(4-{2-[2-(1-ethyl-propyl)-5-methyl-oxazol-4-yl]-ethoxy}-benzo[b]thiophen-7-yl)-propionic acid]	120 to 121
COC(Cc1ccc(OCCCc2nc(C(C)(C)C)oc2C)c2ccsc12)C(=O)O (racemic) [Example 58, [rac]-3-{4-[3-(2-tert-Butyl-5-methyl-oxazol-4-yl)-propoxy]-benzo[b]thiophen-7-yl}-2-methoxy-propionic acid]	110 to 113
CCCOC(Cc1ccc(OCCc2nc(C(C)(C)C)oc2C)c2ccccc12)C(=O)O (stereo not drawn) [Example 14, 3-{4-[2-(2-tert-Butyl-5-methyl-oxazol-4-yl)-ethoxy]-naphthalen-1-yl}-2-propoxy-propionic acid]	135 to 137
COC(Cc1cc(C)c(OCCc2nc(C(C)(C)C)oc2C)c(C)c1)C(=O)O (stereo not drawn) [Example 15, 3-{4-[2-(2-tert-Butyl-5-methyl-oxazol-4-yl)-ethoxy]-3,5-dimethyl-phenyl}-2-methoxy-propionic acid]	78 to 80
CCOC(Cc1cc(C)c(OCCc2nc(C(C)(C)C)oc2C)c(C)c1)C(=O)O (stereo not drawn) [Example 16, 3-{4-[2-(2-tert-Butyl-5-methyl-oxazol-4-yl)-ethoxy]-3,5-dimethyl-phenyl}-2-ethoxy-propionic acid]	104 to 106
CCOC(Cc1ccc(OCc2nc(C(C)(C)C)oc2C)c2ccsc12)C(=O)O (stereo not drawn) [Example 19, 3-[4-(2-tert-Butyl-5-methyl-oxazol-4-ylmethoxy)-benzo[b]thiophen-7-yl]-2-ethoxy-propionic acid]	179 to 180
CCOC(Cc1ccc(OCCCc2nc(C(C)(C)C)oc2CC)c2ccsc12)C(=O)O (racemic) [Example 53, [rac]-3-{4-[3-(2-tert-Butyl-5-ethyl-oxazol-4-yl)-propoxy]-benzo[b]thiophen-7-yl}-2-ethoxy-propionic acid]	94 to 95
